These are literature values, as cited in patent US20020013357A1, “Valdecoxib compositions” (priority 1999, published 2002).

`Cc1onc(-c2ccccc2)c1-c1ccc(S(N)(=O)=O)cc1` [Valdecoxib, 4-(5-methyl-3-phenyl-4-isoxazolyl)benzenesulfonamide]: the solubility in water result is reported as “extremely low solubility in water”.
